# Measurements taken from the supplement of paper PMC10307832.
# Assays:
# Assay in all cases: relative viability (nuclei count vs DMSO), 5 days (fraction); higher = more cells survive
# NCI-H727 = test system: NCI-H727
# In short: (§1)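 One day after seeding in 1536-well plates, lung cancer cell lines were dosed by pin tool. Dosing was either single-drug or a fixed anchor-drug dose plus five library-drug doses (not always all listed) in √10 steps. After 5 days, nuclei were stained in one fix-and-stain step and counted on 4× images, and relative viability is the nuclei count of treated wells over that of vehicle wells, given as the median of duplicate plates.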
# NCI-H2023 = test system: NCI-H2023
# In short: as §1
# RERF-LC-KJ = test system: RERF-LC-KJ
# In short: as §1
# NCI-H2126 = test system: NCI-H2126
# In short: as §1
# NCI-H650 = test system: NCI-H650
# In short: as §1
# LOU-NH91 = test system: LOU-NH91
# In short: as §1
# NCI-H1755 = test system: NCI-H1755
# In short: as §1
# NCI-H1437 = test system: NCI-H1437
# In short: as §1
# HCC-78 = test system: HCC-78
# In short: as §1
# LCLC-103H = test system: LCLC-103H
# In short: as §1
# NCI-H441 = test system: NCI-H441
# In short: as §1
# HCC-827 = test system: HCC-827
# In short: as §1
# NCI-H1792 = test system: NCI-H1792
# In short: as §1
# NCI-H2085 = test system: NCI-H2085
# In short: as §1
# NCI-H2342 = test system: NCI-H2342
# In short: as §1
# NCI-H2170 = test system: NCI-H2170
# In short: as §1
# LCLC-97TM1 = test system: LCLC-97TM1
# In short: as §1
# SK-MES-1 = test system: SK-MES-1
# In short: as §1
# 201T = test system: 201T
# In short: as §1
# NCI-H596 = test system: NCI-H596
# In short: as §1
# ChaGo-K-1 = test system: ChaGo-K-1
# In short: as §1
# NCI-H2405 = test system: NCI-H2405
# In short: as §1
smiles,measurement,setting,value
COCC1(CO)C(=O)C2CCN1CC2 (stereo unspecified) [PRIMA-1MET] + N=C(N)NC(=N)NCCc1ccccc1 [Phenformin] (partner 250 µM),relative viability,NCI-H727; first compound 0.2 µM,0.472
same,relative viability,NCI-H727; first compound 0.6325 µM,0.395
same,relative viability,NCI-H727; first compound 2 µM,0.387
same,relative viability,NCI-H727; first compound 6.325 µM,0.342
same,relative viability,NCI-H727; first compound 20 µM,0.124
same,relative viability,NCI-H2023; first compound 0.2 µM,0.453
same,relative viability,NCI-H2023; first compound 0.6325 µM,0.447
same,relative viability,NCI-H2023; first compound 2 µM,0.398
same,relative viability,NCI-H2023; first compound 6.325 µM,0.405
same,relative viability,NCI-H2023; first compound 20 µM,0.284
same,relative viability,RERF-LC-KJ; first compound 0.2 µM,0.493
same,relative viability,RERF-LC-KJ; first compound 0.6325 µM,0.432
same,relative viability,RERF-LC-KJ; first compound 2 µM,0.449
same,relative viability,RERF-LC-KJ; first compound 6.325 µM,0.52
same,relative viability,RERF-LC-KJ; first compound 20 µM,0.427
same,relative viability,NCI-H2126; first compound 0.2 µM,0.568
same,relative viability,NCI-H2126; first compound 0.6325 µM,0.532
same,relative viability,NCI-H2126; first compound 2 µM,0.513
same,relative viability,NCI-H2126; first compound 6.325 µM,0.577
same,relative viability,NCI-H2126; first compound 20 µM,0.531
same,relative viability,NCI-H650; first compound 0.2 µM,0.595
same,relative viability,NCI-H650; first compound 2 µM,0.433
same,relative viability,NCI-H650; first compound 6.325 µM,0.482
same,relative viability,NCI-H650; first compound 20 µM,0.438
same,relative viability,LOU-NH91; first compound 0.2 µM,0.724
same,relative viability,LOU-NH91; first compound 0.6325 µM,0.667
same,relative viability,LOU-NH91; first compound 2 µM,0.554
same,relative viability,LOU-NH91; first compound 6.325 µM,0.712
same,relative viability,LOU-NH91; first compound 20 µM,0.392
same,relative viability,NCI-H1755; first compound 0.2 µM,0.613
same,relative viability,NCI-H1755; first compound 0.6325 µM,0.659
same,relative viability,NCI-H1755; first compound 2 µM,0.406
same,relative viability,NCI-H1755; first compound 6.325 µM,0.635
same,relative viability,NCI-H1755; first compound 20 µM,0.574
same,relative viability,NCI-H1437; first compound 0.2 µM,0.322
same,relative viability,NCI-H1437; first compound 0.6325 µM,0.331
same,relative viability,NCI-H1437; first compound 2 µM,0.259
same,relative viability,NCI-H1437; first compound 6.325 µM,0.298
same,relative viability,NCI-H1437; first compound 20 µM,0.294
same,relative viability,HCC-78; first compound 0.2 µM,0.7
same,relative viability,HCC-78; first compound 0.6325 µM,0.648
same,relative viability,HCC-78; first compound 6.325 µM,0.658
same,relative viability,HCC-78; first compound 20 µM,0.599
same,relative viability,LCLC-103H; first compound 0.2 µM,0.354
same,relative viability,LCLC-103H; first compound 0.6325 µM,0.283
same,relative viability,LCLC-103H; first compound 2 µM,0.315
same,relative viability,LCLC-103H; first compound 6.325 µM,0.355
same,relative viability,LCLC-103H; first compound 20 µM,0.362
same,relative viability,NCI-H441; first compound 0.2 µM,0.872
same,relative viability,NCI-H441; first compound 0.6325 µM,0.762
same,relative viability,NCI-H441; first compound 2 µM,0.838
same,relative viability,NCI-H441; first compound 6.325 µM,0.657
same,relative viability,NCI-H441; first compound 20 µM,0.183
same,relative viability,HCC-827; first compound 0.2 µM,0.433
same,relative viability,HCC-827; first compound 0.6325 µM,0.416
same,relative viability,HCC-827; first compound 2 µM,0.344
same,relative viability,HCC-827; first compound 6.325 µM,0.367
same,relative viability,HCC-827; first compound 20 µM,0.372
same,relative viability,NCI-H1792; first compound 0.2 µM,0.352
same,relative viability,NCI-H1792; first compound 0.6325 µM,0.272
same,relative viability,NCI-H1792; first compound 6.325 µM,0.238
same,relative viability,NCI-H1792; first compound 20 µM,0.319
same,relative viability,NCI-H2085; first compound 0.2 µM,0.727
same,relative viability,NCI-H2085; first compound 0.6325 µM,0.62
same,relative viability,NCI-H2085; first compound 2 µM,0.432
same,relative viability,NCI-H2085; first compound 6.325 µM,0.449
same,relative viability,NCI-H2085; first compound 20 µM,0.272
same,relative viability,NCI-H2342; first compound 0.2 µM,0.58
same,relative viability,NCI-H2342; first compound 0.6325 µM,0.667
same,relative viability,NCI-H2342; first compound 2 µM,0.462
same,relative viability,NCI-H2342; first compound 6.325 µM,0.608
same,relative viability,NCI-H2342; first compound 20 µM,0.543
same,relative viability,NCI-H2170; first compound 0.2 µM,0.418
same,relative viability,NCI-H2170; first compound 0.6325 µM,0.416
same,relative viability,NCI-H2170; first compound 2 µM,0.38
same,relative viability,NCI-H2170; first compound 6.325 µM,0.405
same,relative viability,NCI-H2170; first compound 20 µM,0.376
same,relative viability,LCLC-97TM1; first compound 0.2 µM,0.436
same,relative viability,LCLC-97TM1; first compound 0.6325 µM,0.437
same,relative viability,LCLC-97TM1; first compound 2 µM,0.484
same,relative viability,LCLC-97TM1; first compound 6.325 µM,0.448
same,relative viability,LCLC-97TM1; first compound 20 µM,0.347
same,relative viability,SK-MES-1; first compound 0.2 µM,0.724
same,relative viability,SK-MES-1; first compound 0.6325 µM,0.731
same,relative viability,SK-MES-1; first compound 2 µM,0.722
same,relative viability,SK-MES-1; first compound 6.325 µM,0.663
same,relative viability,SK-MES-1; first compound 20 µM,0.615
same,relative viability,201T; first compound 0.2 µM,0.444
same,relative viability,201T; first compound 0.6325 µM,0.452
same,relative viability,201T; first compound 2 µM,0.397
same,relative viability,201T; first compound 6.325 µM,0.452
same,relative viability,201T; first compound 20 µM,0.464
same,relative viability,NCI-H596; first compound 0.2 µM,0.752
same,relative viability,NCI-H596; first compound 0.6325 µM,0.794
same,relative viability,NCI-H596; first compound 2 µM,0.622
same,relative viability,NCI-H596; first compound 6.325 µM,0.891
same,relative viability,NCI-H596; first compound 20 µM,0.693
same,relative viability,ChaGo-K-1; first compound 0.2 µM,0.481
same,relative viability,ChaGo-K-1; first compound 0.6325 µM,0.439
same,relative viability,ChaGo-K-1; first compound 2 µM,0.514
same,relative viability,ChaGo-K-1; first compound 6.325 µM,0.503
same,relative viability,ChaGo-K-1; first compound 20 µM,0.459
same,relative viability,NCI-H2405; first compound 0.2 µM,0.296
same,relative viability,NCI-H2405; first compound 0.6325 µM,0.401
same,relative viability,NCI-H2405; first compound 6.325 µM,0.288
same,relative viability,NCI-H2405; first compound 20 µM,0.0656
